Experimental findings from US9290536B2, “C4 monomethyl triterpenoid derivatives and methods of use thereof” (Reata Pharmaceuticals, Inc., priority 2011, dated 2016) are described below.

The test system of the test is IFNγ-induced NO production in RAW264.7. As to the kind of experiment: Suppression of IFNγ-induced NO production in RAW264.7 mouse macrophages (Griess reagent, normalized to WST-1 cell viability). The format is cell-based. The conditions noted are these: RAW264.7 cells, 2 h pre-treatment with drug (0-200 nM), then IFNγ for 24 h. Here is the method:
Nitric Oxide Production and Cell Viability. […] On the next day, cells were pre-treated with DMSO or drug (0-200 nM dose range) for 2 hours, and then treated with recombinant mouse IFNγ (R&D Systems) for 24 hours. Nitric Oxide concentration in media was determined using the Griess reagent system (Promega). Cell viability was determined using WST-1 reagent (Roche). IC50 values were determined based on the suppression of IFNγ induced Nitric Oxide production normalized to cell viability.
Background: The Griess reaction detects nitrite, a stable product of nitric oxide.
Consider `COCC(=O)NNC(=O)[C@]12CCC(C)(C)C[C@H]1[C@H]1C(=O)C=C3[C@@]4(C)C=C(C#N)C(=O)[C@@H](C)[C@@H]4CC[C@@]3(C)[C@]1(C)CC2` [TX63784], for which the IC50 (commonly the concentration at which inhibition is half-maximal) was determined as 7.5 nM.
As for `C[C@@H]1C(=O)C(C#N)=C[C@]2(C)C3=CC(=O)[C@@H]4[C@@H]5CC(C)(C)CC[C@]5(C(=O)NNC=O)CC[C@@]4(C)[C@]3(C)CC[C@@H]12` [TX63785], the IC50 is 20 nM.
Regarding `C/C(=N\O)NC(=O)[C@]12CCC(C)(C)C[C@H]1[C@H]1C(=O)C=C3[C@@]4(C)C=C(C#N)C(=O)[C@@H](C)[C@@H]4CC[C@@]3(C)[C@]1(C)CC2` [TX63786], the IC50 turned out to be 2.2 nM.
For `Cc1noc([C@]23CCC(C)(C)C[C@H]2[C@H]2C(=O)C=C4[C@@]5(C)C=C(C#N)C(=O)[C@@H](C)[C@@H]5CC[C@@]4(C)[C@]2(C)CC3)n1` [TX63787], the IC50 was 0.8 nM.
Take `COC(=O)C1=C[C@]2(C)C3=CC(=O)[C@@H]4[C@@H]5CC(C)(C)CC[C@]5(C(=O)OC)CC[C@@]4(C)[C@]3(C)CC[C@H]2[C@H](C)C1=O` [TX63788]: the IC50 amounted to 33.5 nM.
In the case of `C[C@@H]1C(=O)C(C#N)=C[C@]2(C)C3=CC(=O)[C@@H]4[C@@H]5CC(C)(C)CC[C@]5(c5nnco5)CC[C@@]4(C)[C@]3(C)CC[C@@H]12` [TX63789], the IC50 stood at 0.6 nM.
As for `COCc1nnc([C@]23CCC(C)(C)C[C@H]2[C@H]2C(=O)C=C4[C@@]5(C)C=C(C#N)C(=O)[C@@H](C)[C@@H]5CC[C@@]4(C)[C@]2(C)CC3)o1` [TX63790], the concentration for half-maximal inhibition (IC50) turned out to be 1.1 nM.
For the compound `COC(=O)[C@]12CCC(C)(C)C[C@H]1C1=CC[C@@H]3[C@@]4(C)CC(C#N)=C(OC(C)=O)[C@@H](C)[C@@H]4CC[C@@]3(C)[C@]1(C)CC2` [TX63795], the IC50 was > 200 nM.
Regarding `C[C@@H]1C(=O)C(C#N)=C[C@]2(C)[C@H]3CC(=O)[C@@H]4[C@@H]5CC(C)(C)CC[C@]5(C(=O)O)CC[C@@]4(C)[C@]3(C)CC[C@@H]12` [TX63797], the 50% inhibitory concentration (IC50) was found to be 21 nM.
In the case of `C[C@@H]1C(=O)C(C#N)=C[C@]2(C)C3=CC(=O)[C@@H]4[C@@H]5CC(C)(C)CC[C@]5(NC(=O)c5ccccc5)CC[C@@]4(C)[C@]3(C)CC[C@@H]12` [TX63798] it was 1.5 nM.
Consider `C[C@@H]1C(=O)C(C#N)=C[C@]2(C)C3=CC(=O)[C@@H]4[C@@H]5CC(C)(C)CC[C@]5(NC(=O)CC(F)(F)F)CC[C@@]4(C)[C@]3(C)CC[C@@H]12` [TX63799], for which the half-inhibitory concentration (IC50) is 1.8 nM.
With `CCOC(=O)N[C@]12CCC(C)(C)C[C@H]1[C@H]1C(=O)C=C3[C@@]4(C)C=C(C#N)C(=O)[C@@H](C)[C@@H]4CC[C@@]3(C)[C@]1(C)CC2` [TX63800] the figure was 0.9 nM; with `C[C@@H]1C(=O)C(C#N)=C[C@]2(C)[C@H]3CC(=O)[C@@H]4[C@@H]5CC(C)(C)CC[C@]5(C(=O)NCC(F)(F)F)CC[C@@]4(C)[C@]3(C)CC[C@@H]12` [TX63807], 5.8 nM; with `C[C@@H]1C(=O)C(C#N)=C[C@]2(C)[C@H]3CC(=O)[C@@H]4[C@@H]5CC(C)(C)CC[C@]5(C(=O)n5ccnc5)CC[C@@]4(C)[C@]3(C)CC[C@@H]12` [TX63811], 0.3 nM.
With `C[C@@H]1C(=O)C(C#N)=C[C@]2(C)[C@H]3CC(=O)[C@@H]4[C@@H]5CC(C)(C)CC[C@]5(C(=O)N5CCOCC5)CC[C@@]4(C)[C@]3(C)CC[C@@H]12` [TX63812] the figure was 10.1 nM; with `C[C@@H]1C(=O)C(C#N)=C[C@]2(C)[C@H]3CC(=O)[C@@H]4[C@@H]5CC(C)(C)CC[C@]5(C(=O)NO)CC[C@@]4(C)[C@]3(C)CC[C@@H]12` [TX63814], 19 nM; with `CONC(=O)[C@]12CCC(C)(C)C[C@H]1[C@H]1C(=O)C[C@@H]3[C@@]4(C)C=C(C#N)C(=O)[C@@H](C)[C@@H]4CC[C@@]3(C)[C@]1(C)CC2` [TX63815], 9.6 nM.
On to `C[C@@H]1C(=O)C(C#N)=C[C@]2(C)[C@H]3CC(=O)[C@@H]4[C@@H]5CC(C)(C)CC[C@]5(C(N)=O)CC[C@@]4(C)[C@]3(C)CC[C@@H]12` [TX63816], for which the IC50 was 10.2 nM.
For `C[C@@H]1C(=O)C(C#N)=C[C@]2(C)[C@H]3CC(=O)[C@@H]4[C@@H]5CC(C)(C)CC[C@]5(C#N)CC[C@@]4(C)[C@]3(C)CC[C@@H]12` [TX63817], the IC50 was 2.6 nM.
With `C[C@@H]1C(=O)C(C#N)=C[C@]2(C)C3=CC(=O)[C@@H]4[C@@H]5CC(C)(C)CC[C@]5(NS(=O)(=O)CC(F)(F)F)CC[C@@]4(C)[C@]3(C)CC[C@@H]12` [TX63818], the IC50 came to 0.8 nM.
With `CC(C)OC(=O)N[C@]12CCC(C)(C)C[C@H]1[C@H]1C(=O)C=C3[C@@]4(C)C=C(C#N)C(=O)[C@@H](C)[C@@H]4CC[C@@]3(C)[C@]1(C)CC2` [TX63819], the IC50 came out at 2.7 nM.
In the case of `CCOC(=O)[C@]12CCC(C)(C)C[C@H]1[C@H]1C(=O)C=C3[C@@]4(C)C=C(C#N)C(=O)[C@@H](C)[C@@H]4CC[C@@]3(C)[C@]1(C)CC2` [TX63820] it was 1.5 nM; in that of `CCCCCCOC(=O)[C@]12CCC(C)(C)C[C@H]1[C@H]1C(=O)C=C3[C@@]4(C)C=C(C#N)C(=O)[C@@H](C)[C@@H]4CC[C@@]3(C)[C@]1(C)CC2` [TX63821], 53 nM.
In the case of `Cc1cn(C(=O)[C@]23CCC(C)(C)C[C@H]2[C@H]2C(=O)C=C4[C@@]5(C)C=C(C#N)C(=O)[C@@H](C)[C@@H]5CC[C@@]4(C)[C@]2(C)CC3)c(C)n1` [TX63822], the IC50 was determined as 0.7 nM.
With `C[C@@H]1C(=O)C(C#N)=C[C@]2(C)C3=CC(=O)[C@@H]4[C@@H]5CC(C)(C)CC[C@]5(C(=O)N5CCCC5)CC[C@@]4(C)[C@]3(C)CC[C@@H]12` [TX63823], the IC50 was found to be 0.8 nM.
For `CNC(=O)[C@]12CCC(C)(C)C[C@H]1[C@H]1C(=O)C=C3[C@@]4(C)C=C(C#N)C(=O)[C@@H](C)[C@@H]4CC[C@@]3(C)[C@]1(C)CC2` [TX63824], the IC50 is 1 nM.
As for `C[C@@H]1C(=O)C(C#N)=C[C@]2(C)C3=CC(=O)[C@@H]4[C@@H]5CC(C)(C)CC[C@]5(C(=O)NC5COC5)CC[C@@]4(C)[C@]3(C)CC[C@@H]12` [TX63825], the IC50 came to 2 nM.
With `CCNC(=O)N[C@]12CCC(C)(C)C[C@H]1[C@H]1C(=O)C=C3[C@@]4(C)C=C(C#N)C(=O)[C@@H](C)[C@@H]4CC[C@@]3(C)[C@]1(C)CC2` [TX63826] the figure was 4.4 nM.
As for `COC(=O)[C@]12CCC(C)(C)C[C@H]1[C@H]1C(=O)C=C3[C@@]4(C)C=C(C(=O)O)C(=O)[C@@H](C)[C@@H]4CC[C@@]3(C)[C@]1(C)CC2` [TX63830], the IC50 was found to be 4.6 nM.
Take `COC(=O)[C@]12CCC(C)(C)C[C@H]1[C@H]1C(=O)C=C3[C@@]4(C)C=C(C(N)=O)C(=O)[C@@H](C)[C@@H]4CC[C@@]3(C)[C@]1(C)CC2` [TX63831]: the 50% inhibitory concentration (IC50) is 21 nM.
With `COC(=O)[C@]12CCC(C)(C)C[C@H]1[C@H]1C(=O)C=C3[C@@]4(C)C=CC(=O)[C@@H](C)[C@@H]4CC[C@@]3(C)[C@]1(C)CC2` [TX63832] the figure was 149 nM.
As for `COC(=O)[C@]12CCC(C)(C)C[C@H]1[C@H]1C(=O)C=C3[C@@]4(C)C=C(I)C(=O)[C@@H](C)[C@@H]4CC[C@@]3(C)[C@]1(C)CC2` [TX63833], the IC50 turned out to be 88 nM.
With `C[C@@H]1C(=O)C(C#N)=C[C@]2(C)[C@H]3CC(=O)[C@@H]4[C@@H]5CC(C)(C)CC[C@]5(CO)CC[C@@]4(C)[C@]3(C)CC[C@@H]12` [TX63839] the figure was 4 nM.
Regarding `CC(=O)OC[C@]12CCC(C)(C)C[C@H]1[C@H]1C(=O)C[C@@H]3[C@@]4(C)C=C(C#N)C(=O)[C@@H](C)[C@@H]4CC[C@@]3(C)[C@]1(C)CC2` [TX63840], the IC50 turned out to be 2.9 nM.
On to `C[C@@H]1C(=O)C(C#N)=C[C@]2(C)[C@H]3CC(=O)[C@@H]4[C@@H]5CC(C)(C)CC[C@]5(COC(=O)C(F)(F)F)CC[C@@]4(C)[C@]3(C)CC[C@@H]12` [TX63841], for which the half-inhibitory concentration (IC50) is 4.5 nM.
Turning to `CCOC(=O)[C@]12CCC(C)(C)C[C@H]1[C@H]1C(=O)C[C@@H]3[C@@]4(C)C=C(C#N)C(=O)[C@@H](C)[C@@H]4CC[C@@]3(C)[C@]1(C)CC2` [TX63842], the IC50 came to 6.1 nM.
Regarding `CCCCNC(=O)[C@]12CCC(C)(C)C[C@H]1[C@H]1C(=O)C[C@@H]3[C@@]4(C)C=C(C#N)C(=O)[C@@H](C)[C@@H]4CC[C@@]3(C)[C@]1(C)CC2` [TX63843], the IC50 came to 10.9 nM.
For `COC[C@]12CCC(C)(C)C[C@H]1[C@H]1C(=O)C[C@@H]3[C@@]4(C)C=C(C#N)C(=O)[C@@H](C)[C@@H]4CC[C@@]3(C)[C@]1(C)CC2` [TX63858], the concentration for half-maximal inhibition (IC50) amounted to 7.2 nM.
With `CSCOC[C@]12CCC(C)(C)C[C@H]1[C@H]1C(=O)C[C@@H]3[C@@]4(C)C=C(C#N)C(=O)[C@@H](C)[C@@H]4CC[C@@]3(C)[C@]1(C)CC2` [TX63859] the figure was 14.6 nM; with `C[C@@H]1C(=O)C(C#N)=C[C@]2(C)[C@H]3CC(=O)[C@@H]4[C@@H]5CC(C)(C)CC[C@]5(COCF)CC[C@@]4(C)[C@]3(C)CC[C@@H]12` [TX63860], 4.1 nM.
For `C[C@@H]1C(=O)C(C#N)=C[C@]2(C)C3=CC(=O)[C@@H]4[C@@H]5CC(C)(C)CC[C@]5(NC(N)=O)CC[C@@]4(C)[C@]3(C)CC[C@@H]12` [TX63862], the IC50 was determined as 28 nM.
With `C[C@@H]1C(=O)C(C#N)=C[C@]2(C)C3=CC(=O)[C@@H]4[C@@H]5CC(C)(C)CC[C@]5(NC(=O)C5CCC5)CC[C@@]4(C)[C@]3(C)CC[C@@H]12` [TX63863] the figure was 1.8 nM.
For `CCC(=O)N[C@]12CCC(C)(C)C[C@H]1[C@H]1C(=O)C=C3[C@@]4(C)C=C(C#N)C(=O)[C@@H](C)[C@@H]4CC[C@@]3(C)[C@]1(C)CC2` [TX63864], the IC50 is 1.9 nM.
